Data taken from patent US20230227466A1, “SUBSTITUTED THIENOPYRIMIDINES THAT INTERACT WITH THE RAS SUPERFAMILY FOR THE TREATMENT OF CANCERS, INFLAMMATORY DISEASES, RASOPATHIES, AND FIBROTIC DISEASE” (SHY Therapeutics, LLC, priority 2020, published 2023).
Where two headings read alike, the source gives them in different places.

Tests used:
KRas G12C mutant = target: T1, KRas G12C mutant (Homo sapiens, UniProt P01116, G12C); assay: Ras GTP binding domain inhibition assay (labeled-GTP competition, cell-free)
T1 construct: made in house
Summary of the method: (§1)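 First, the His-tagged protein was captured overnight at 4° C on nickel wells. Second, compound was applied at 20 μM or as a dilution series for IC50 over 3 h. Third, 100 nM Cy3- or Cy5-GTP was added for 45 min. Finally, wells were washed and bound label quantified.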

KRas G12D mutant = target: T2, KRas G12D mutant (Homo sapiens, UniProt P01116, G12D); assay: as above
T2 construct: made in house
Summary of the method: as §1

KRas Q61H mutant = target: T3, KRas Q61H mutant (Homo sapiens, UniProt P01116, Q61H); assay: as above
T3 construct: made in house
Summary of the method: as §1

[1] = test system: MIA-PaCa-2 pancreatic cancer cell line (KRAS G12C); assay: Cell proliferation assay (CellTiter 96 Aqueous One); format: cell-based; settings: Homo sapiens; for IC50: MIA PaCa-2, MIA PaCa-2; for inhibition at 10 µM: MIA PaCa-2, read-out: % inh cell proliferation (10 μM) in MIA PaCa-2
Summary of the method: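 Percent inhibition of proliferation is derived from MTS absorbance data. Cells seeded at 2000–5000 per well were grown overnight before treatment. Compounds, at 10 μM final or in dilution series, stayed on cells for 2–4 days in medium containing 10% FBS and 0.3% DMSO.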

KRas wild type = KRas wild type (Homo sapiens, UniProt P01116); assay: Ras GTP binding domain inhibition assay (labeled-GTP competition, cell-free); parameters: made in house
Summary of the method: as §1

Rac-1 = Rac-1 (Homo sapiens, UniProt P63000); assay: as above; parameters: made in house
Summary of the method: as §1

Rho-A = Rho-A (Homo sapiens, UniProt P61586); assay: as above; parameters: made in house
Summary of the method: as §1

[2] = with SOS, read-out: KRas G12C mutant + SOS: % inh.
[3] = without SOS, read-out: KRas G12C mutant: % inh.
[4] = with SOS, read-out: KRas G12D mutant + SOS: % inh.
[5] = without SOS, read-out: KRas G12D mutant: % inh.
[6] = with SOS, read-out: KRas Q61H mutant + SOS: % inh.
[7] = without SOS, read-out: KRas Q61H mutant: % inh.
[8] = with SOS, read-out: KRas wild type + SOS: % inh.
[9] = without SOS, read-out: KRas wild type: % inh.
[10] = with SOS, read-out: Rac-1 + SOS: % inh.
[11] = without SOS, read-out: Rac-1: % inh.
[12] = with SOS, read-out: Rho-A + SOS: % inh.
[13] = without SOS, read-out: Rho-A: % inh.

Structure (SMILES)	inhibition at 20 µM (KRas G12C mutant; [2])	inhibition at 20 µM (KRas G12C mutant; [3])	inhibition at 20 µM (KRas G12D mutant; [4])	inhibition at 20 µM (KRas G12D mutant; [5])	inhibition at 20 µM (KRas Q61H mutant; [6])	inhibition at 20 µM (KRas Q61H mutant; [7])	IC50 (KRas Q61H mutant; with SOS)	IC50 [1]	inhibition at 10 µM [1]	inhibition at 20 µM (KRas wild type; [8])	inhibition at 20 µM (KRas wild type; [9])	inhibition at 20 µM (Rac-1; [10])	inhibition at 20 µM (Rac-1; [11])	inhibition at 20 µM (Rho-A; [12])	inhibition at 20 µM (Rho-A; [13])
O=C(Nc1ccccn1)c1nc(O)c2scc(-c3ccccn3)c2n1 [Compound 24, 4-Hydroxy-N,7-di(pyridin-2-yl)thieno[3,2-d]pyrimidine-2-carboxamide]	1 to 25%	1 to 25%	0%	1 to 25%	0%	1 to 25%	> 10 µM	> 10 µM	1 to 25%	1 to 25%	1 to 25%	1 to 25%	0%	1 to 25%	1 to 25%
Cc1sc2c(O)nc(-c3ccccn3)nc2c1-c1ccccn1 [Compound 26, 6-Methyl-2,7-di(pyridin-2-yl)thieno[3,2-d]pyrimidin-4-ol]	76 to 100%	76 to 100%	76 to 100%	76 to 100%	76 to 100%	76 to 100%	5 to 10 µM	5 to 10 µM	51 to 75%	51 to 75%	76 to 100%	76 to 100%	76 to 100%	76 to 100%	76 to 100%
Cn1ccnc1-c1nc(O)c2scc(-c3ncccc3F)c2n1 [Compound 30, 7-(3-Fluoropyridin-2-yl)-2-(1-methyl-1H-imidazol-2-yl)thieno[3,2-d]pyrimidin-4-ol]	76 to 100%	51 to 75%	51 to 75%	51 to 75%	76 to 100%	51 to 75%	1 to 4.99 µM	> 10 µM	26 to 50%	76 to 100%	76 to 100%	51 to 75%	51 to 75%	76 to 100%	76 to 100%
CO[C@@H]1CC[C@H](Nc2nc(-c3nccn3C)nc3sc(-c4ccn(C(C)C)n4)c(C)c23)C1 [Compound 31, 6-(1-Isopropyl-1H-pyrazol-3-yl)-N-((1S,3R)-3-methoxycyclopentyl)-5-methyl-2-(1-methyl-1H-imidazol-2-yl)thieno[2,3-d]pyrimidin-4-amine]	76 to 100%	51 to 75%	76 to 100%	26 to 50%	76 to 100%	26 to 50%	1 to 4.99 µM	< 1 µM	76 to 100%	76 to 100%	26 to 50%	26 to 50%		51 to 75%	51 to 75%
CO[C@H]1CC[C@@H](Nc2nc(-c3nccn3C)nc3sc(-c4ccn(C(C)C)n4)c(C)c23)C1 [Compound 32, 6-(1-Isopropyl-1H-pyrazol-3-yl)-N-((1R,3S)-3-methoxycyclopentyl)-5-methyl-2-(1-methyl-1H-imidazol-2-yl)thieno[2,3-d]pyrimidin-4-amine]	76 to 100%	51 to 75%	76 to 100%	26 to 50%	76 to 100%	51 to 75%	1 to 4.99 µM	< 1 µM	76 to 100%	76 to 100%	76 to 100%	26 to 50%	26 to 50%	51 to 75%	51 to 75%
COCCNc1nc(-c2nccn2C)nc2sc(-c3ccn(C(C)C)n3)c(C)c12 [Compound 35, 6-(1-Isopropyl-1H-pyrazol-3-yl)-N-(2-methoxyethyl)-5-methyl-2-(1-methyl-1H-imidazol-2-yl)thieno[2,3-d]pyrimidin-4-amine]	76 to 100%	76 to 100%	76 to 100%	76 to 100%	76 to 100%	76 to 100%		5 to 10 µM	76 to 100%	76 to 100%	76 to 100%	76 to 100%	76 to 100%	76 to 100%	76 to 100%
